Reference: US8859580B2 (Boehringer Ingelheim International GmbH, priority 2007, dated 2014)

Biological target: T1, 11β-HSD1 (Homo sapiens, UniProt P28845)
T1 construct: detecting cortisol generated from cortisterone by human liver microsomes; from tissue; host or cells: human liver microsomes
Assay: In vitro inhibition of 11β-HSD1, HTRF detection of cortisol generated from cortisone by human liver microsomes
Type: biochemical
Conditions: 11β-HSD IC50 (nM), 1 hour at 37° C., pH 6.0, NADPH 200 μM, cortisone 80 nM, inhibition relative to carbenoxolone signal
How it was run: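 Inhibition expressed against the carbenoxolone signal and fitted to IC50 curves. Readout: HTRF competition between microsomal cortisol and XL665-labelled cortisol for Eu-cryptate anti-cortisol antibody (typically 2 h), with emission ratio 665/615 calibrated to cortisol concentration.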

T1 sequence (P28845 whole entry): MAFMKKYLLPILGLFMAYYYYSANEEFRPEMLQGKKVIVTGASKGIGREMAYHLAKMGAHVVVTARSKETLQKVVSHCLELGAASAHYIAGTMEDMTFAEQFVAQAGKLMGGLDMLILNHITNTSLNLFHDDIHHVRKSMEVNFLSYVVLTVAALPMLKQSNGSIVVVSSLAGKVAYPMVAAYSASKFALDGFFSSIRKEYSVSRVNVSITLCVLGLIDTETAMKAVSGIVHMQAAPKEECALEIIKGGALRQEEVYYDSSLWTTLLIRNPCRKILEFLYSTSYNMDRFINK

In order of falling IC50:
1. CC1(C)[C@H]2Cc3ccccc3[C@]1(C)CCN2C(=O)c1ccc([N+](=O)[O-])cc1 [Example 280, (4-Nitro-phenyl)-[(2R,6S)-6,11,11-trimethyl-1,2,5,6-tetrahydro-4H-2,6-methano-benzo[d]azocin-3-yl]-methanone]  1260 nM
2. CC(=O)c1cccc(C(=O)N2CC[C@@]3(C)c4ccccc4C[C@@H]2C3(C)C)c1 [Example 307, 1-{3-[(2R,6S)-6,11,11-Trimethyl-1,2,5,6-tetrahydro-4H-2,6-methano-benzo[d]azocine-3-carbonyl]-phenyl}-ethanone]  979 nM
3. CC(C)(O)c1ccc(C(=O)N2CC[C@@]3(C)c4ccccc4C[C@@H]2C3(C)C)cc1 [Example 306, [4-(1-Hydroxy-1-methyl-ethyl)-phenyl]-[(2R,6S)-6,11,11-trimethyl-1,2,5,6-tetrahydro-4H-2,6-methano-benzo[d]azocin-3-yl]-methanone]  978 nM
4. CC1(C)[C@H]2Cc3ccccc3[C@]1(C)CCN2C(=O)c1c(F)c(F)c(N)c(F)c1F [Example 281, (4-Amino-2,3,5,6-tetrafluoro-phenyl)-[(2R,6S)-6,11,11-trimethyl-1,2,5,6-tetrahydro-4H-2,6-methano-benzo[d]azocin-3-yl]-methanone]  918 nM
5. CC1(C)[C@H]2Cc3ccccc3[C@]1(C)CCN2C(=O)c1ccc2c(c1)C(=O)CC2 [Example 288, 6-[(2R,6S)-6,11,11-Trimethyl-1,2,5,6-tetrahydro-4H-2,6-methano-benzo[d]azocine-3-carbonyl)-indan-1-one]  901 nM
6. CC1(C)[C@H]2Cc3ccccc3[C@]1(C)CCN2C(=O)c1cc(F)c(F)c(F)c1 [Example 297, (3,4,5-Trifluoro-phenyl)-[(2R,6S)-6,11,11-trimethyl-1,2,5,6-tetrahydro-4H-2,6-methano-benzo[d]azocin-3-yl]-methanone]  895 nM
7. CC1(C)[C@H]2Cc3ccccc3[C@]1(C)CCN2C(=O)c1ccc(O)nc1 [Example 303, (6-Hydroxy-pyridin-3-yl)-[(2R,6S)-6,11,11-trimethyl-1,2,5,6-tetrahydro-4H-2,6-methano-benzo[d]azocin-3-yl)-methanone]  717 nM
8. CC1(C)[C@H]2Cc3ccccc3[C@]1(C)CCN2C(=O)c1cccc2ccccc12 [Example 284, Naphthalen-1-yl-[(2R,6S)-6,11,11-trimethyl-1,2,5,6-tetrahydro-4H-2,6-methano-benzo[d]azocin-3-yl]-methanone]  666 nM
9. CC1(O)CCc2ccc(C(=O)N3CC[C@@]4(C)c5ccccc5C[C@@H]3C4(C)C)cc21 (stereo partly drawn) [Example 292, (3-Hydroxy-3-methyl-indan-5-yl)-[(2R,6S)-6,11,11-trimethyl-1,2,5,6-tetrahydro-4H-2,6-methano-benzo[d]azocin-3-yl]-methanone]  502 nM
10. CC1(C)[C@H]2Cc3ccccc3[C@]1(C)CCN2C(=O)c1ccc2nccnc2c1 [Example 278, Quinoxalin-6-yl-[(2R,6S)-6,11,11-trimethyl-1,2,5,6-tetrahydro-4H-2,6-methano-benzo[d]azocin-3-yl]-methanone]  438 nM
11. CC1(C)[C@H]2Cc3ccccc3[C@]1(C)CCN2C(=O)c1ccc2ccccc2c1 [Example 282, Naphthalen-2-yl-[(2R,6S)-6,11,11-trimethyl-1,2,5,6-tetrahydro-4H-2,6-methano-benzo[d]azocin-3-yl]-methanone]  409 nM
12. CC(=O)c1ccc(C(=O)N2CC[C@@]3(C)c4ccccc4C[C@@H]2C3(C)C)cc1 [Example 299]  352 nM
13. CC1(C)[C@H]2Cc3ccccc3[C@]1(C)CCN2C(=O)c1ccc(N)nc1 [Example 304, (6-Amino-pyridin-3-yl)-[(2R,6S)-6,11,11-trimethyl-1,2,5,6-tetrahydro-4H-2,6-methano-benzo[d]azocin-3-yl)-methanone]  251 nM
14. CC1(C)[C@H]2Cc3ccccc3[C@]1(C)CCN2C(=O)c1ccc2c(c1)C(O)CC2 (stereo partly drawn) [Example 291, (3-Hydroxy-indan-5-yl)-[(2R,6S)-6,11,11-trimethyl-1,2,5,6-tetrahydro-4H-2,6-methano-benzo[d]azocin-3-yl]-methanone]  183 nM
15. Cc1nc2cc3c(cc2o1)[C@]1(C)CCN(C(=O)c2ccc4nc[nH]c4c2)[C@H](C3)[C@H]1C [Example 305, (3H-Benzoimidazol-5-yl)-[(6R,10R,12S)-5,6,7,8,9,10-hexahydro-2,10,12-trimethyl-6,10-methano-oxazolo[5,4-i][3]benzazocin 7-yl]-methanone]  153 nM
16. CC1(C)[C@H]2Cc3ccccc3[C@]1(C)CCN2C(=O)c1ccc2cn[nH]c2c1 [Example 285, (1H-Indazol-6-yl)-[(2R,6S)-6,11,11-trimethyl-1,2,5,6-tetrahydro-4H-2,6-methano-benzo[d]azocin-3-yl]-methanone]  150 nM
17. C[C@@H]1[C@H]2Cc3ccc(-c4ccc(=O)n(C)c4)cc3[C@]1(C)CCN2C(=O)c1ccc2nc[nH]c2c1 [Example 289, 5-[(2R,6R,11S)-3-(3H-Benzoimidazole-5-carbonyl)-6,11-dimethyl-1,2,3,4,5,6-hexahydro-2,6-methano-benzo[d]azocin-8-yl]-1-methyl-1H-pyridin-2-one]  121 nM
18. Cc1nc2c3c(ccc2o1)C[C@@H]1[C@@H](C)[C@@]3(C)CCN1C(=O)c1ccc2nc[nH]c2c1 [Example 300, (3H-Benzoimidazol-5-yl)-[(7R,11R,12S)-6,7,8,9,10,11-hexahydro-2,11,12-trimethyl-6,10-methano-oxazolo[4,5-h][3]benzazocin-8-yl]-methanone]  115 nM
19. CC1(C)[C@H]2Cc3ccccc3[C@]1(C)CCN2C(=O)c1ccc2c(c1)CC(=O)N2 [Example 298, 5-[(2R,6S)-6,11,11-Trimethyl-1,2,5,6-tetrahydro-4H-2,6-methano-benzo[d]azocine-3-carbonyl]-1,3-dihydro indol-2-one]  99 nM
20. C[C@@H]1[C@H]2Cc3ccc(-c4ccc(=O)n(C)n4)cc3[C@]1(C)CCN2C(=O)c1ccc2nc[nH]c2c1 [Example 290, 6-[(2R,6R,11S)-3-(3H-Benzoimidazole-5-carbonyl)-6,11-dimethyl-1,2,3,4,5,6-hexahydro-2,6-methano-benzo[d]azocin-8-yl]-2-methyl-2H-pyridazin-3-one]  72 nM
21. CC1(C)[C@H]2Cc3ccccc3[C@]1(C)CCN2C(=O)c1cc(Cl)c(N)c(Cl)c1 [Example 283, (4-Amino-3,5-dichloro-phenyl)-[(2R,6S)-6,11,11-trimethyl-1,2,5,6-tetrahydro-4H-2,6-methano-benzo[d]azocin-3-yl]-methanone]  55 nM
22. C[C@@H]1[C@H]2Cc3ccc(-c4ccn(C)c(=O)c4)cc3[C@]1(C)CCN2C(=O)c1ccc2nc[nH]c2c1 [Example 279, (3H-Benzoimidazol-5-yl)-[(2R,6R,11S)-6,11-dimethyl-8-(1-methyl-2-oxo-1,2-dihydro-pyridin-4-yl)-1,2,5,6-tetrahydro-4H-2,6-methano-benzo[d]azocin-3-yl]-methanone]  52 nM
23. CC1(C)[C@H]2Cc3ccccc3[C@]1(C)CCN2C(=O)c1ccc(N)cc1 [Example 286, (4-Amino-phenyl)-[(2R,6S)-6,11,11-trimethyl-1,2,5,6-tetrahydro-4H-2,6-methano-benzo[d]azocin-3-yl]-methanone]  47 nM
24. CC1(C)[C@H]2Cc3ccccc3[C@]1(C)CCN2C(=O)c1ccc(N)c(Cl)c1 [Example 295, (4-Amino-3-chloro-phenyl)-[(2R,6S)-6,11,11-trimethyl-1,2,5,6-tetrahydro-4H-2,6-methano-benzo[d]azocin-3-yl]-methanone]  35 nM
25. CC1(C)[C@H]2Cc3cc4oc(C5CC5)nc4cc3[C@]1(C)CCN2C(=O)c1ccc2nc[nH]c2c1 [Example 302, (3H-Benzoimidazol-5-yl)-[(6R,10S)-2-cyclopropyl-5,6,7,8,9,10-hexahydro-10,12,12-trimethyl-6,10-methano-oxazolo[4,5-i][3]benzazocin-7-yl]-methanone]  35 nM
26. CC1(C)[C@H]2Cc3cc4nc(-c5ccnnc5)[nH]c4cc3[C@]1(C)CCN2C(=O)c1ccc2nc[nH]c2c1 [Example 276, (3H-Benzoimidazol-5-yl)-[(6R,10S)-5,6,7,8,9,10-hexahydro-10,12,12-trimethyl-2-pyridazin-4-yl-6,10-methano-imidazo[5,4-i][3]benzazocin-7-yl]-methanone]  34 nM
27. Cc1cnc(-c2nc3cc4c(cc3[nH]2)[C@]2(C)CCN(C(=O)c3ccc5nc[nH]c5c3)[C@H](C4)C2(C)C)cn1 [Example 277, (3H-Benzoimidazol-5-yl)-[(6R,10S)-5,6,7,8,9,10-hexahydro-10,12,12-trimethyl-2-(5-methyl-pyrazin-2-yl)-6,10-methano-imidazo[5,4-i][3]benzazocin-7-yl]-methanone]  34 nM
28. CC1(C)[C@H]2Cc3ccccc3[C@]1(C)CCN2C(=O)c1ccc(N)c(F)c1 [Example 296, (4-Amino-3-fluoro-phenyl)-[(2R,6S)-6,11,11-trimethyl-1,2,5,6-tetrahydro-4H-2,6-methano-benzo[d]azocin-3-yl]-methanone]  32 nM
29. Cc1nc2cc3c(cc2o1)C[C@H]1N(C(=O)c2ccc4nc[nH]c4c2)CC[C@]3(C)C1(C)C [Example 301, (3H-Benzoimidazol-5-yl)-[(6R,10S)-5,6,7,8,9,10-hexahydro-2,10,12,12-tetramethyl-6,10-methano-oxazolo[4,5-i][3]benzazocin-7-yl]-methanone]  32 nM
30. CC1(C)[C@H]2Cc3ccccc3[C@]1(C)CCN2C(=O)c1ccc2[nH]ncc2c1 [Example 293, (1H-Indazol-5-yl)-[(2R,6S)-6,11,11-trimethyl-1,2,5,6-tetrahydro-4H-2,6-methano-benzo[d]azocin-3-yl]-methanone]  27 nM
31. CC1(C)[C@H]2Cc3cc4nc([C@@H]5CCCO5)[nH]c4cc3[C@]1(C)CCN2C(=O)c1ccc2nc[nH]c2c1 [Example 275, (3H-Benzoimidazol-5-yl)-[(6R,10S)-5,6,7,8,9,10-hexahydro-10,12,12-trimethyl-2-[(S)-tetrahydrofuran-2-yl]-6,10-methano-imidazo[5,4-i][3]benzazocin-7-yl]-methanone]  25 nM
